Laboratory results reported in US8426420B2, “Heterocyclic pyrazole-carboxamidesas P2Y12 antagonists” (Sanofi, priority 2007, dated 2013).

biological target: human P2Y12 receptor (Homo sapiens, UniProt Q9H244); experiment: Human P2Y12 recombinant cell membrane binding assay with 33P 2MeS-ADP; details: competition against 33P 2MeS-ADP, membranes of CHO cells with recombinant human P2Y12 receptor
Description: The ability of the compounds of the formula Ito inhibit the P2Y12 receptor can be assessed by determining the concentration of the compound of the formula I that binds to the human P2Y12 Recombinant Cell Membrane Binding Assay with 33P 2MeS-ADP.
Human P2Y12 Recombinant Cell Membrane Binding Assay
The ability of a test compound to bind to the P2Y12 receptor was evaluated in a recombinant cell membrane binding assay. In this competitive binding assay, the test compound competed against a radiolabeled agonist for binding to the P2Y12 receptor, expressed on the cell membrane. Inhibition of binding of the labeled material was measured and correlated to the amount and potency of the test compound. This binding assay is a modification of the procedure described by Takasaki, J. et. al, Mol. Pharmacol., 2001, Vol. 60, pg. 432. A membrane preparation was prepared from Chinese Hamster Ovary (CHO) cells with recombinant expression of the human P2Y12 receptor according to standard procedures as a source of P2Y12.
To a 96-well microtiterplate the following were added: a) 24 μl of assay buffer (10 mM HEPES, 138 mM NaCl, […] KCl, 12 mM NaHCO3, 1 mM EDTA-Na, 0.1% BSA, pH 7.4) b) 1 μL compound in DMSO c) 50 μL P2Y12 CHO membrane (20 μg/ml) and after 15 min at RT d) 25 μL of 1.61 nM 33P 2MeS-ADP (Perkin Elmer NEN custom synthesis, specific activity ˜2100 Ci/mmol) made in assay buffer.
After 20 min incubation at RT samples were transferred to 96-well microtiter filterplates (Millipore HTS GF/B), pre-wetted for 20 min with 300 μL of stop buffer (10 mM HEPES, 138 mM NaCl pH 7.4) and then filtered through completely with a Millipore plate vacuum. Next, wells were washed four times with 400 μl/well of stop buffer on a plate vacuum. The plate was disassembled and allowed to air dry overnight with the filter side up over night. The filter plates were snapped into adapter plates and 0.1 mL of Microscint 20 Scintillation Fluid (Perkin Elmer #6013621) was added to each well. The top of the filterplate was sealed with plastic plate covers. The sealed filterplate were incubated 2 hours at RT. A Microbeta Scintillation Counter was used to measure counts.
Compounds were diluted as 10 mM DMSO stocks and tested in a four-point, five-fold dilution series run in triplicate beginning at 10 μM, final concentration. Data were analyzed using a four-parameter curve fit with a fixed minimum and maximum experimentally defined as the average positive and negative controls on each plate.

Sequence of human P2Y12 receptor (Q9H244 whole entry): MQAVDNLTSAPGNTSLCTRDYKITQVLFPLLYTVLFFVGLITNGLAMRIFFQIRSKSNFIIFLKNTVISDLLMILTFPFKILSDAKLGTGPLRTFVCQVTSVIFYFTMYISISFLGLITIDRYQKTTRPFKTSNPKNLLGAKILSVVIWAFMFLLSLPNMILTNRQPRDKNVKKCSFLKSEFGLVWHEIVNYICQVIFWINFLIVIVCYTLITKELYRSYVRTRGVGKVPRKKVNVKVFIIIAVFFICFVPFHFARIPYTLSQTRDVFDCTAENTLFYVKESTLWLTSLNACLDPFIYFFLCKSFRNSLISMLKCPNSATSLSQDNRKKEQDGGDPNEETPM

Compound	IC50 [nM]
CCOC(=O)N1CCN(C(=O)[C@H](CCC(=O)OC2CCCC2)NC(=O)c2cc(OCC(=O)N3CCC[C@H]3C(=O)NC3CCC3)n(-c3ccccc3)n2)CC1 [Example 130, 4-[(S)-2-({5-[2-((S)-2-Cyclobutylcarbamoyl-pyrrolidin-1-yl)-2-oxo-ethoxy]-1-phenyl-1H-pyrazole-3-carbonyl}-amino)-4-cyclopentyloxycarbonyl-butyryl]-piperazine-1-carboxylic acid ethyl ester]	59
CCCCOC(=O)CC[C@H](NC(=O)c1cc(OCC(=O)N2CCC[C@H]2C(=O)NC2CCC2)n(-c2ccccc2)n1)C(=O)N1CCN(C(=O)OCC)CC1 [Example 134, 4-[(S)-2-({5-[2-((S)-2-Cyclobutylcarbamoyl-pyrrolidin-1-yl)-2-oxo-ethoxy]-1-phenyl-1H-pyrazole-3-carbonyl}-amino)-4-butoxycarbonyl-butyryl]-piperazine-1-carboxylic acid ethyl ester]	42
CCOC(=O)CC[C@H](NC(=O)c1cc(OCC(=O)N2CCC[C@H]2C(=O)NC2CCC2)n(-c2cccc(F)c2)n1)C(=O)N1CCN(C(=O)OCC)CC1 [Example 140, 4-((S)-2-{[5-[2-((S)-2-Cyclobutylcarbamoyl-pyrrolidin-1-yl)-2-oxo-ethoxy]-1-(3-fluoro-phenyl)-1H-pyrazole-3-carbonyl]-amino}-4-ethoxyoxycarbonyl-butyryl)-piperazine-1-carboxylic acid ethyl ester]	173
CCOC(=O)N1CCN(C(=O)[C@H](CCC(=O)O)NC(=O)c2cc(OCC(=O)N3CCC[C@H]3C(=O)NCCF)n(-c3ccccc3)n2)[C@H](C)C1 [Example 151, (R)-4-[(S)-4-Carboxy-2-({5-[2-((S)-2-(2-fluoroethyl-carbamoyl)-pyrrolidin-1-yl)-2-oxo-ethoxy]-1-phenyl-1H-pyrazole-3-carbonyl}-amino)-butyryl]-3-methyl-piperazine-1-carboxylic acid ethyl ester]	166
CCOC(=O)N1CCN(C(=O)[C@H](CCC(=O)O)NC(=O)c2cc(OCC(=O)N3CCC[C@H]3C(=O)NCC3CC3)n(-c3ccccc3)n2)[C@H](C)C1 [Example 152, (R)-4-[(S)-4-Carboxy-2-({5-[2-((S)-2-(cyclopropylmethyl-carbamoyl)-pyrrolidin-1-yl)-2-oxo-ethoxy]-1-phenyl-1H-pyrazole-3-carbonyl}-amino)-butyryl]-3-methyl-piperazine-1-carboxylic acid ethyl ester]	37
CCCOC(=O)N1CCN(C(=O)C(NC(=O)c2cc(OCC(=O)N3CCC[C@H]3C(=O)NC3CCC3)n(-c3ccccc3)n2)C(C)F)CC1 (stereo partly drawn) [Example 175, 4-[2-({5-[2-((S)-2-Cyclobutylcarbamoyl-pyrrolidin-1-yl)-2-oxo-ethoxy]-1-phenyl-1H-pyrazole-3-carbonyl}-amino)-3-fluoro-butyryl]-piperazine-1-carboxylic acid propyl ester]	179
CCCCOC(=O)N1CCN(C(=O)C(NC(=O)c2cc(OCC(=O)N3CCC[C@H]3C(=O)NC3CCC3)n(-c3ccccc3)n2)C(C)F)CC1 (stereo partly drawn) [Example 176, 4-[2-({5-[2-((S)-2-Cyclobutylcarbamoyl-pyrrolidin-1-yl)-2-oxo-ethoxy]-1-phenyl-1H-pyrazole-3-carbonyl}-amino)-3-fluoro-butyryl]-piperazine-1-carboxylic acid butyl ester]	45
CCCCOC(=O)N1CCN(C(=O)[C@H](C)NC(=O)c2cc(OCC(=O)N3CCC[C@H]3C(=O)NC3CCC3)n(-c3ccccc3)n2)CC1 [Example 186, 4-[(S)-2-({5-[2-((S)-2-Cyclobutylcarbamoyl-pyrrolidin-1-yl)-2-oxo-ethoxy]-1-phenyl-1H-pyrazole-3-carbonyl}-amino)-propionyl]-piperazine-1-carboxylic acid butyl ester]	16
CCCCOC(=O)N1CCN(C(=O)[C@H](CCCCOCc2ccccc2)NC(=O)c2cc(OCC(=O)N3CCC[C@H]3C(=O)NC3CCC3)n(-c3ccccc3)n2)CC1 [Example 196, 4-[(S)-6-Benzyloxy-2-({5-[2-((S)-2-cyclobutylcarbamoyl-pyrrolidin-1-yl)-2-oxo-ethoxy]-1-phenyl-1H-pyrazole-3-carbonyl}-amino)-hexanoyl]-piperazine-1-carboxylic acid butyl ester]	23
O=C(N[C@@H](CCCCOCc1ccccc1)C(=O)N1CCN(C(=O)OC2CCC2)CC1)c1cc(OCC(=O)N2CCC[C@H]2C(=O)NC2CCC2)n(-c2ccccc2)n1 [Example 197, 4-[(S)-6-Benzyloxy-2-({5-[2-((S)-2-cyclobutylcarbamoyl-pyrrolidin-1-yl)-2-oxo-ethoxy]-1-phenyl-1H-pyrazole-3-carbonyl}-amino)-hexanoyl]-piperazine-1-carboxylic acid cyclobutyl ester]	99

The remaining lines, values ahead:

IC50 [nM]	Compound
25	CCOC(=O)N1CCN(C(=O)[C@H](CCC(=O)OCc2ccccc2)NC(=O)c2cc(OCC(=O)N3CCC[C@H]3C(=O)NC3CCC3)n(-c3ccccc3)n2)CC1 [Example 132, 4-[(S)-2-({5-[2-((S)-2-Cyclobutylcarbamoyl-pyrrolidin-1-yl)-2-oxo-ethoxy]-1-phenyl-1H-pyrazole-3-carbonyl}-amino)-4-benzyloxycarbonyl-butyryl]-piperazine-1-carboxylic acid ethyl ester]
42	CCCOC(=O)CC[C@H](NC(=O)c1cc(OCC(=O)N2CCC[C@H]2C(=O)NC2CCC2)n(-c2ccccc2)n1)C(=O)N1CCN(C(=O)OCC)CC1 [Example 133, 4-[(S)-2-({5-[2-((S)-2-Cyclobutylcarbamoyl-pyrrolidin-1-yl)-2-oxo-ethoxy]-1-phenyl-1H-pyrazole-3-carbonyl}-amino)-4-propoxycarbonyl-butyryl]-piperazine-1-carboxylic acid ethyl ester]
148	CCOC(=O)N1CCN(C(=O)[C@H](CCC(=O)OC(C)C)NC(=O)c2cc(OCC(=O)N3CCC[C@H]3C(=O)NC3CCC3)n(-c3ccccc3)n2)CC1 [Example 137, 4-[(S)-2-({5-[2-((S)-2-Cyclobutylcarbamoyl-pyrrolidin-1-yl)-2-oxo-ethoxy]-1-phenyl-1H-pyrazole-3-carbonyl}-amino)-4-isopropoxycarbonyl-butyryl]-piperazine-1-carboxylic acid ethyl ester]
146	CCOC(=O)N1CCN(C(=O)[C@H](CCC(=O)O)NC(=O)c2cc(OCC(=O)N3CCCC3c3cccs3)n(-c3ccccc3)n2)CC1 (stereo partly drawn) [Example 167, 4-[(S)-4-Carboxy-2-({5-[2-oxo-2-(2-thiophen-2-yl-pyrrolidin-1-yl)-ethoxy]-1-phenyl-1H-pyrazole-3-carbonyl}-amino)-butyryl]-piperazine-1-carboxylic acid ethyl ester]
86	CCOC(=O)N1CCN(C(=O)[C@H](CCC(=O)O)NC(=O)c2cc(OCC(=O)N3CCC[C@H]3c3ccccc3)n(-c3ccccc3)n2)CC1 [Example 170, 4-[(S)-4-Carboxy-2-({5-[2-oxo-2-((S)-2-phenyl-pyrrolidin-1-yl)-ethoxy]-1-phenyl-1H-pyrazole-3-carbonyl}-amino)-butyryl]-piperazine-1-carboxylic acid ethyl ester]
88	CCOC(=O)N1CCN(C(=O)[C@H](CCCCOCc2ccccc2)NC(=O)c2cc(OCC(=O)N3CCC[C@H]3C(=O)NC3CCC3)n(-c3ccccc3)n2)CC1 [Example 195, 4-[(S)-6-Benzyloxy-2-({5-[2-((S)-2-cyclobutylcarbamoyl-pyrrolidin-1-yl)-2-oxo-ethoxy]-1-phenyl-1H-pyrazole-3-carbonyl}-amino)-hexanoyl]-piperazine-1-carboxylic acid ethyl ester]
